Experimental data as given in the NIST ThermoML archive (doi:10.1021/je300632p).

Assay: xn = mol fraction of the nth substance listed
Settings: 101 kPa, Liquid; for viscosity: Falling or rolling sphere viscometry; for mass density: Vibrating tube method

CCCCO [butan-1-ol] + CCO
Settings	mass density [kg/m3]	viscosity [mPa·s]
293.15 K, x2 = 0	809.02	3.066
293.15 K, x2 = 0.1	807.8	2.693
293.15 K, x2 = 0.2	806.38	2.494
293.15 K, x2 = 0.3	804.85	2.242
293.15 K, x2 = 0.4	803.63	2.048
293.15 K, x2 = 0.501	801.61	1.897
293.15 K, x2 = 0.602	799.54	1.725
293.15 K, x2 = 0.701	797.38	1.574
293.15 K, x2 = 0.801	795.11	1.445
293.15 K, x2 = 0.9	792.58	1.301
298.15 K, x2 = 0	805.24	2.534
298.15 K, x2 = 0.1	803.98	2.376
298.15 K, x2 = 0.2	802.53	2.214
298.15 K, x2 = 0.3	800.97	1.993
298.15 K, x2 = 0.4	799.71	1.826
298.15 K, x2 = 0.501	797.65	1.705
298.15 K, x2 = 0.602	795.54	1.55
298.15 K, x2 = 0.701	793.33	1.414
298.15 K, x2 = 0.801	790.98	1.302
298.15 K, x2 = 0.9	788.39	1.18
303.15 K, x2 = 0	801.42	2.234
303.15 K, x2 = 0.1	800.13	2.103
303.15 K, x2 = 0.2	798.65	1.967
303.15 K, x2 = 0.3	797.06	1.777
303.15 K, x2 = 0.4	795.75	1.633
303.15 K, x2 = 0.501	793.66	1.533
303.15 K, x2 = 0.602	791.5	1.397
303.15 K, x2 = 0.701	789.23	1.279
303.15 K, x2 = 0.801	786.82	1.184
303.15 K, x2 = 0.9	784.17	1.072
308.15 K, x2 = 0	797.57	1.978
308.15 K, x2 = 0.1	796.25	1.868
308.15 K, x2 = 0.2	794.74	1.754
308.15 K, x2 = 0.3	793.12	1.591
308.15 K, x2 = 0.4	791.76	1.465
308.15 K, x2 = 0.501	789.63	1.381
308.15 K, x2 = 0.602	787.42	1.262
308.15 K, x2 = 0.701	785.1	1.159
308.15 K, x2 = 0.801	782.64	1.076
308.15 K, x2 = 0.9	779.92	0.977
313.15 K, x2 = 0	793.68	1.756
313.15 K, x2 = 0.1	792.33	1.664
313.15 K, x2 = 0.2	790.79	1.569
313.15 K, x2 = 0.3	789.13	1.427
313.15 K, x2 = 0.4	787.74	1.318
313.15 K, x2 = 0.501	785.57	1.246
313.15 K, x2 = 0.602	783.31	1.142
313.15 K, x2 = 0.701	780.94	1.052
313.15 K, x2 = 0.801	778.41	0.98
313.15 K, x2 = 0.9	775.63	0.892
318.15 K, x2 = 0	789.75	1.564
318.15 K, x2 = 0.1	788.37	1.487
318.15 K, x2 = 0.2	786.8	1.407
318.15 K, x2 = 0.3	785.11	1.283
318.15 K, x2 = 0.4	783.67	1.189
318.15 K, x2 = 0.501	781.46	1.127
318.15 K, x2 = 0.602	779.15	1.037
318.15 K, x2 = 0.701	776.73	0.957
318.15 K, x2 = 0.801	774.14	0.895
318.15 K, x2 = 0.9	771.28	0.815
323.15 K, x2 = 0	785.78	1.397
323.15 K, x2 = 0.1	784.36	1.333
323.15 K, x2 = 0.2	782.76	1.265
323.15 K, x2 = 0.3	781.03	1.158
323.15 K, x2 = 0.4	779.54	1.074
323.15 K, x2 = 0.501	777.29	1.024
323.15 K, x2 = 0.602	774.95	0.943
323.15 K, x2 = 0.701	772.47	0.874
323.15 K, x2 = 0.801	769.82	0.817
323.15 K, x2 = 0.9	766.89	0.748
328.15 K, x2 = 0	781.75	1.252
328.15 K, x2 = 0.1	780.31	1.199
328.15 K, x2 = 0.2	778.67	1.141
328.15 K, x2 = 0.3	776.91	1.047
328.15 K, x2 = 0.4	775.38	0.974
328.15 K, x2 = 0.501	773.09	0.93
328.15 K, x2 = 0.602	770.69	0.86
328.15 K, x2 = 0.701	768.15	0.798
328.15 K, x2 = 0.801	765.44	0.749
328.15 K, x2 = 0.9	762.45	0.686

CCO [ethanol] + CCCCCO
x1 = 1
Settings	mass density [kg/m3]	viscosity [mPa·s]
293.15 K	790.13	1.151
298.15 K	785.86	1.069
303.15 K	781.56	0.973
308.15 K	777.23	0.888
313.15 K	772.86	0.813
318.15 K	768.44	0.755
323.15 K	763.97	0.684
328.15 K	759.44	0.63
